Data on one substance can be found in US20210102200A1, “SMALL MOLECULE TARGETED RECRUITMENT OF A NUCLEASE TO RNA” (The Scripps Research Institute, priority 2018, published 2021).

Assay [1] has as its system pre-miR-210. Description: pre-miR-210 levels / cleavage in hypoxic MDA-MB-231 cells by RT-qPCR. In kind it is cell-based. As for the experimental part: MDA-MB-231 (HTB-26; ATCC) cells were cultured in Roswell Park Memorial Institute (RPM I) 1640 media with L-glutamine & 25 mM HEPES (Corning) supplemented with 10% fetal bovine serum (FBS) (Sigma) and 1×Penicillin Streptomycin Solution (Corning). Cells cultured in normoxia were maintained at 37° C. in ambient atmosphere (˜21% O2) with 5% CO2. Cells cultured in hypoxia were maintained at 37° C., <1% O2 in a nitrogen filled hypoxic chamber (Billups-Rothenberg, Inc.), and 5% CO2. Cells were directly purchased from ATCC, but were not authenticated.
For compound treatment (TGP-210, TGP-210-RL, LNA-210, Scr-LNA), compound stocks in DMSO or water were diluted in growth medium and added to cells for 24-48 h. […]
MDA-MB-231 cells were treated in normoxic or hypoxic conditions for 24-48 h, as described above in the Experimental Model and Subject Details section. […] RNA expression levels were determined using the ΔΔCt method and normalized using 18S ribosomal RNA or U6 small nuclear RNA as housekeeping genes. […] Upon treatment with chimeric compound TGP-210-RL, relative cleavage levels were calculated according to equation 1A (Eq. 1A) in order to control for the effect of parent compound TGP-210, on pre-miR-210 expression: […]

Assay [2] deals with DNA. Description: Microscale thermophoresis binding, DNA Hairpin. As for the experimental part:
(§1) MST fluorescent measurements were performed on a Monolith NT.115 system (NanoTemper Technologies) using the fluorescence of a 5′-Cy5 labeled miR-210 Hairpin RNA (5′—Cy5 […]) (SEQ ID NO: 11), a 5′-Cy5 miR-210 Mutant RNA (5′—Cy5 […]) (SEQ ID NO: 12), or a 5′ Cy5 DNA Hairpin (5′—Cy5 […]) (SEQ ID NO: 13) which were purchased from IDT with RNase-free HPLC purification and used without further purification. The RNA (5 nM) was prepared in 1×MST Buffer (8 mM Na2HPO4, 190 mM NaCl, 1 mM EDTA, and 0.05% (v/v) Tween-20) and folded by heating at 60° C. for 5 min, and slowly cooling to room temperature. Compounds (TGP-210 or TGP-210-RL) were diluted in 1×MST Buffer and then were added to a final concentration of 20 μM, followed by 1:2 dilutions in 1×MST Buffer containing 5 nM RNA. Alternatively, RNase L in 1×MST Buffer was added to a final concentration of 50 nM in addition to compound and RNA. […] Fluorescence measurements (Ex: 605-645 nm, Em: 680-685 nm) were performed at 20% LED and 80% MST power, with a Laser-On time of 30 s and Laser-Off time of 5 s. The data were analyzed by thermophoresis analysis and fitted by the quadratic binding equation in MST analysis software (NanoTemper Technologies). Dissociation constants were then determined by curve fitting using a single-site model.
In general terms: Microscale thermophoresis detects binding through changes in fluorescence in a small temperature gradient.

For assay [3], the target named is pre-miR-210 mimic. Description: Microscale thermophoresis binding, miR-210 Hairpin RNA. The note with it: MST. As for the experimental part: as §1

Broadly, the Kd is the concentration at which binding is half-saturated. A lower Kd goes with a tighter complex. For the substance Targapremir-210 [TGP-210], in assay [1] (constant TGP-210-RL, increasing amounts of TGP-210), the “Cleavage of pre-miR-210 by TGP-210-RL upon addition of TGP-210” value is “caused a decrease in cleavage of pre-miR-210”. The pre-miR-210 levels result in assay [1] (hypoxic MDA-MB-231 cells) was “increase”. In assay [2], the “Selectivity window between DNA and the Dicer site in pre-miR-210” value is reported as 5 fold. For the same substance, the figures for the Kd in assay [2] (MST) and in assay [3] were 620 nM and 160 nM, respectively.
